Assay results: patent US12298318B2, “Targeting ligands for tau pathology” (Texas Children's Hospital, priority 2019, dated 2025)

Columns and labels:
MAO-B enzyme = target: T1, MAO-B enzyme (Homo sapiens, UniProt P27338); details: brain; cited from earlier work
T1 sequence (P27338 1-520): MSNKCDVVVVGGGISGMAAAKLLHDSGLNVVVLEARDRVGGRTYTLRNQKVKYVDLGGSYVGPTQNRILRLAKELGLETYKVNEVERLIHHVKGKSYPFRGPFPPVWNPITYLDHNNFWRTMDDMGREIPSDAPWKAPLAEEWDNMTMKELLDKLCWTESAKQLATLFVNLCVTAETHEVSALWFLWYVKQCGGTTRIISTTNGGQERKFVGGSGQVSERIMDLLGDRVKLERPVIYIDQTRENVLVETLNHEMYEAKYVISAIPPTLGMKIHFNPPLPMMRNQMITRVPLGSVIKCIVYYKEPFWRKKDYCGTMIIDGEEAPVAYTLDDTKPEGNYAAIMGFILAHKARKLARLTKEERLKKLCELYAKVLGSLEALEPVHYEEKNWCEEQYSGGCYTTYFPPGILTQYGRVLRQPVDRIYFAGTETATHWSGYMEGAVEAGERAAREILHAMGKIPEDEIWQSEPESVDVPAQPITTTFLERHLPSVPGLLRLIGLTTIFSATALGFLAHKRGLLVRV

tetrameric VIM = tetrameric VIM (Homo sapiens, UniProt P08670); details: cited from earlier work
[1] = tested on: hyperphosphorylated SH SY5Y cells; assay: Saturation binding of Cy5-labeled aptamer, apparent Kd, SH-SY5Y cells; set-up: species or system human; details: read-out: apparent equilibrium dissociation constant (Kdapp)
Method: (§1) The apparent equilibrium dissociation constants (Kdapp) were measured by serial dilution of aptamer solutions with target hyperphosphorylated, non-target differentiated, and undifferentiated SH-SY5Y cells. The affinity of these aptamers was also tested with another immortal neural progenitor stem cell line, ReN-VM, in hyperphosphorylative and non-hyperphosphorylative conditions. The Kdapp for Tau_1 (SEQ ID NO: 5; DONGYBM) and Tau_3 (SEQ ID NO: 6; MUSQD) with hyperphosphorylated SH SY5Y cells is 0.167±0.015 nM and 0.194±0.032 nM; and for the ReN-VM cells 318.15±46.2 nM and 234.24±38.6 nM, respectively (FIG. 3).
(§2) Hyperphosphorylation. Hyperphosphorylation was induced in SH-SY5Y cells by addition of 30 nM OA (Sigma Aldrich, St. Louis, MO, #459620) in growth medium with 30 μM RA for 24 h. ReNcell VM were hyperphosphorylated using 100 nM QA (SigmaAldrich, St. Louis, MO, #P63204) in culture media for 24 h.
(§3) Aptamer binding studies. Aptamer binding studies were conducted with undifferentiated, differentiated, and hyperphosphorylated SH SY5Y and ReN cell VM grown in 96-wells seeded at 10000 per well. […]

[2] = tested on: OA treated differentiated SH-SY5Y cells; assay: Cell-SELEX sequence abundance by next-generation sequencing; set-up: species or system human; details: SELEX cycle 26
Method: Aptamer screening was performed using the cell-SELEX approach on differentiated SH-SY5Y cells in a hyperphosphorylative state. FIGS. 2A-2E describe how cell-SELEX was used to identify biomarkers of onset the of AD. OA treated differentiated SH-SY5Y cells were used as a surrogate for hyperphosphorylative neurons to screen DNA aptamers that specifically recognize the differences between the surfaces of treated and untreated cells, using the cell-SELEX methodology modified to capture membrane binding aptamers. A total of 26 cell SELEX cycles were performed. […]
Negative selection eliminated certain sequences that were not specific to the hyperphosphorylative state or have a propensity for hepatocyte uptake. […] The 23 most abundant sequences at round 26 were identified, and their abundance throughout the SELEX process as calculated using AptaAligner is shown in FIG. 2B. […] The secondary structure of the aptamers Tau_1 (SEQ ID NO: 5; DONGYBM) and Tau_3 (SEQ ID NO: 6; MUSQD) calculated using mfold is shown in FIG. 2D. […]
Next-Generation Sequencing (NGS). […] Equimolar quantities of the recovered TA sequences over the range were pooled together and sequenced by Next-Gen DNA sequencing using Ion318 chip (ThermoFisher, Waltham, MA). […]

[3] = tested on: hyperphosphorylated SH-SY5Y cells; assay: Aptamer-based pulldown and mass spectrometry target identification; set-up: species or system human; details: pulldown / immunoprecipitation, mass-spectrometry
Method: To characterize the binding target of the aptamers, an aptamer-based pulldown assay was performed, along with aptamer-based immunoprecipitation, followed by mass-spectrometry. The assay was performed for both Tau_1 (SEQ ID NO: 5; DONGYBM) and Tau_3 (SEQ ID NO: 6; MUSQD) aptamers. […] The surface expression of Keratin 6a, 6b was similar on wild-type and transgenic tissue sections, whereas the VIM expression was higher in the Tg mice (FIG. 6C).
Target Identification. The protein targets of Tau_1 (SEQ ID NO: 5; DONGYBM), Tau_3 (SEQ ID NO: 6; MUSQD), Tau-4, and Tau-5 were identified by affinity-pull down using the selected aptamers as the capturing reagent followed by mass-spectroscopy. A scrambled DNA sequence, R2, was used as a control. The hyperphosphorylated SH-SY5Y cells, at 90-95% confluence, were washed with cold PBS buffer and incubated with biotinylated selected aptamers with […] each at 4° C. in PBS, respectively. After 2 hours of gentle agitation, SH-SY5Y cells were cross-linked with 1% formaldehyde for 10 min at rt. The formaldehyde cross-linking was quenched with glycine. Cells were scraped from the plate, washed, lysed with lysing buffer (Thermofisher Scientific, #87787), and treated with protease inhibitor mixture. The lysates were freeze-thawed for 30 min on ice and cleared by centrifuging at 10,000×g for 2 min at 4° C. […] Each sample was analyzed in triplicate. […]

ReN-VM cells = assay: Saturation binding of Cy5-labeled aptamer, apparent Kd, ReN-VM cells; details: read-out: apparent equilibrium dissociation constant (Kdapp)
Method: as §1, §2, §3

[4] = tested on: hyperphosphorylative SH-SY5Y cells; assay: Binding studies with Cy5-labeled aptamer (cell staining); type: cell-based, human; details: 50 nM, 2 h at 4° C. (FIG. 2C)
Source text: Negative selection eliminated certain sequences that were not specific to the hyperphosphorylative state or have a propensity for hepatocyte uptake. However, the relative abundance of key sequences increased steadily throughout the whole process. The 23 most abundant sequences at round 26 were identified, and their abundance throughout the SELEX process as calculated using AptaAligner is shown in FIG. 2B. The sequence Tau_1 (SEQ ID NO: 5; DONGYBM) was the most prevalent at cycle 26, representing 20.6% of the thioaptamers present. A single base difference from this sequence, Tau_3 (SEQ ID NO: 6; MUSQD), was the second most represented sequence (10.4%). […] The secondary structure of the aptamers Tau_1 (SEQ ID NO: 5; DONGYBM) and Tau_3 (SEQ ID NO: 6; MUSQD) calculated using mfold is shown in FIG. 2D. The sequences present at the final round were grouped by hierarchical clustering and sequence homology using the multiple sequence alignment code MAFFT showing five distinct families, which were also presented as a cladogram (using the Clustal Omega) showing the common ancestry between these five aptamers families (FIG. 2E).
Immunocytochemistry. […]

Chain of tetrameric VIM (P08670 whole entry): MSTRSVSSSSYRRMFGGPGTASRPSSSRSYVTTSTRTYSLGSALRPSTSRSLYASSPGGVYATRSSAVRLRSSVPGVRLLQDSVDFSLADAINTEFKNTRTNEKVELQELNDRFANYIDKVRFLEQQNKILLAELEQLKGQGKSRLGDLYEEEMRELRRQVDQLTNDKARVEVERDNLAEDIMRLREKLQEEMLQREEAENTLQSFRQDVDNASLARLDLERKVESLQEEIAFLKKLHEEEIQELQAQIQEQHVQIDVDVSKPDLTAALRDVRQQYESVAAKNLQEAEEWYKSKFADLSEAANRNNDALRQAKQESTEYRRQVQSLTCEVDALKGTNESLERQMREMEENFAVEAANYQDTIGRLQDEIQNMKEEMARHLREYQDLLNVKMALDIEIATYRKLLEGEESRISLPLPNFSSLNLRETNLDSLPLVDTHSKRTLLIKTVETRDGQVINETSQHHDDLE

Compound | off-target binding (MAO-B enzyme) | binding site on vimentin (tetrameric VIM) | Kd [1] [nM] | fraction of the thioaptamers present (abundance) [2] [%] | possible binding targets by abundance score ranking [3] | Kd (ReN-VM cells) [nM] | binding of Cy5-labeled aptamer to cells [4]
Fc1ccc(-c2ccc3c(c2)[nH]c2ccncc23)cn1 [Flortaucipir] | binds the MAO-B enzyme in the brain | – | – | – | – | – | –
CC1=C(CO)C(=O)O[C@@H]([C@@H](C)[C@H]2CC[C@H]3[C@@H]4C[C@H]5O[C@]56[C@@H](O)C=CC(=O)[C@]6(C)[C@H]4CC[C@]23C)C1 [Withaferin A] | – | binds the conserved cysteine 382 residue on tetrameric VIM | – | – | – | – | –
Tau_1: DNA thioaptamer CCCCCCACGGTCTCCGCTCCACAAGTTCAC (DNA, backbone and methylation of C not given here; further chemistry not fully specified) | – | – | 0.167 ± 0.015 | 20.6 | keratin 6a, Keratin 6b, and VIM | 318 ± 46.2 | elevated binding levels with the hyperphosphorylative cells
Tau_3: DNA thioaptamer CCCCCCACGGTCTCCGCTCCACAAGTCCAC | – | – | 0.194 ± 0.032 | 10.4 | keratin 6a, Keratin 6b, and VIM | 234 ± 38.6 | elevated binding levels with the hyperphosphorylative cells
